Patent publication US6946132B2, “Vaccine compositions and methods useful in inducing immune protection against arthritogenic peptides involved in the pathogenesis of rheumatoid arthritis” (The Regents of the University of California, priority 1994, dated 2005)

B1: rdnaJ: recombinant E. coli dnaJ heat shock protein, expressed and affinity purified, 41 kD (protein, UniProt P08622 2-376, looked up)
Chaperone protein DnaJ: AKQDYYEILGVSKTAEEREIRKAYKRLAMKYHPDRNQGDKEAEAKFKEIKEAYEVLTDSQKRAAYDQYGHAAFEQGGMGGGGFGGGADFSDIFGDVFGDIFGGGRGRQRAARGADLRYNMELTLEEAVRGVTKEIRIPTLEECDVCHGSGAKPGTQPQTCPTCHGSGQVQMRQGFFAVQQTCPHCQGRGTLIKDPCNKCHGHGRVERSKTLSVKIPAGVDTGDRIRLAGEGEAGEHGAPAGDLYVQVQVKQHPIFEREGNNLYCEVPINFAMAALGGEIEVPTLDGRVKLKVPGETQTGKLFRMRGKGVKSVRGGAQGDLLCRVVVETPVGLNERQKQLLQELQESFGGPTGEHNSPRSKSFFDGVKKFFDDLTR

What was measured:
[1] = system: anti-dnaJ antibodies in sera from patients with early stage RA; test: Inhibition of antibody binding to dnaJ (ELISA, sera preincubated with peptide); design: species or system human; settings: sera diluted 1:100, preincubated overnight at 4° C. with peptide; % inhibition; FIG. 3
Experimental: FIG. 3 depicts the results of an inhibition study for inhibition of the activity of anti-dnaJ antibodies produced in separate sera samples from 51 early stage RA patients by intact dnaJ. The percent inhibition shown by bars in the graph of FIG. 3 is expressed in terms of the formula: % inhibition=100 I-OD460 with rdnaJ)(OD460 without rdnaJ) The control sera were obtained from humans without RA.
Microtiter plates were coated with recombinant dnaJ (10 μg/ml). Either sera obtained from patients with early stage RA or sera from control subjects were diluted 1:100 in borate buffered saline. Half of each specimen was incubated overnight at 4° C. with the wild-type dnaJ peptide described in Example III. Then the paired serum specimens were added to the dnaJ coated plates.
After 4 hours incubation, antibody binding was detected with alkaline phosphatase labelled goat anti-human IgG; levels of detected antibody binding were determined according to the following formula: % inhibition=100 (1-OD460with wild-type peptide)(OD460without wild-type peptide)

[2] = system: lymphocytes from patients with early stage RA; test: Proliferation of lymphocytes from RA patients exposed to RA susceptibility sequence peptides (stimulation index); assay type: cell-based, human; settings: for response of RA patient blood lymphocytes to wild-type peptide (dnaJp1) relative to response to mutant peptide (dnaJpV): PBL's of RA patients
Excerpt: FIG. 2 quantifies proliferation of cultured lymphocytes from adult RA and juvenile RA (JRA) patients following exposure of the cells to synthetic dnaJp1 (amino acid sequence […]; SEQ. ID. No. 4) or a mutant dnaJ peptide having the amino acid sequence […] (“dnaJpV”; SEQ. ID. No. 5). The control culture tested consisted of lymphocytes obtained from adults without RA (“normals”). The responses shown by bars in the graph of FIG. 2 are expressed in terms of a lymphocyte stimulation index; i.e., (CPM detected in cultures with dnaJ)/(CPM detected in cultures without dnaJ).
(§1) Lymphocytes from patients with early untreated rheumatoid arthritis (RA) were obtained from blood (peripheral blood lymphocytes, or “PBL's”) for from synovial fluids using standard aseptic techniques. The cells were incubated for 7 days with purified recombinant E. coli dnaJ (10 μg/ml, obtained as described in Example I) in RPMI 1640 medium supplemented with 10% prescreened human AB type serum. Lymphocytes from 10 control subjects (i.e., persons without RA) were treated similarly. Proliferation during the last 16 hours of culture was expressed as a stimulation index=cpm in cultures with dnaJ/cpm in cultures without dnaJ.
Lymphocytes from patients with early stage RA were contacted with one of two RA susceptibility sequence peptides according to the protocol described in Example II. The peptides used were either a 15 amino acid synthetic peptide having the wild-type sequence […] or a 15 amino acid synthetic mutant peptide having the sequence […].

[3] = system: purified HLA MHC Class II epitopes; test: ELISA binding of biotinylated dnaJ peptides to immobilized HLA molecules; design: species or system human; settings: ELISA absorption at 405 nm; FIG. 5
Excerpt: FIG. 5 is a table comparing the binding efficiencies of several dnaJ peptides for purified HLA MHC Class II epitopes. Binding was detected by ELISA between biotinylated dnaJ peptides and immobilized HLA molecules. The results are expressed in the table as absorption units at 405 nm. The peptides tested were: dnaJp1 (SEQ. ID. No. 4), dnaJpV (SEQ. ID. No. 5), dnaJp2 (SEQ. ID. No. 6), S1 (SEQ. ID. No. 7) and S6 (SEQ. ID. No. 8). S1 and […] are synthetic peptides whose amino acid sequence corresponds to the sequence of known HLA DR antigens.

[4] = system: lymphocytes from patients with early untreated rheumatoid arthritis; test: Proliferation of lymphocytes from early stage RA patients exposed to rdnaJ (stimulation index); assay type: cell-based, human; settings: rdnaJ 10 μg/ml, 7 days, FIG. 1
Excerpt: FIG. 1 quantifies proliferation of cultured lymphocytes from 22 patients with early, untreated RA (“early stage” RA) following exposure of the cells to intact bacterial dnaJ protein. The responses shown by bars in the graph of FIG. 1 are expressed in terms of a lymphocyte stimulation index; i.e., (CPM detected in cultures with dnaJ)/(CPM detected in cultures without dnaJ). “CPM” refers to counts-per-minute. The control culture tested consisted of lymphocytes obtained from humans without RA.
as §1

Row | Molecule | inhibition of antibody binding to rdnaJ in RA sera relative to inhibition in control sera [1] | response of RA patient PBL's to wild-type peptide relative to response of lymphocytes from control subjects to wild-type peptide ([2]; FIG. 2) | response of RA patient blood lymphocytes to wild-type peptide (dnaJp1) relative to response to mutant peptide (dnaJpV) ([2]; FIG. 2) | response of RA patient blood lymphocytes to wild-type peptide (dnaJp1) relative to response to mutant peptide (dnaJpV) ([2]; FIG. 2, listed as wild-type peptide) | binding to HLA MHC Class II molecule epitopes relative to human HLA Dw4 peptides (S1 and S6) [3] | proliferation response of PBL's relative to response of control subject lymphocytes ([4]; PBL's from 14 early stage RA patients) | proliferation response of synovial fluid lymphocytes relative to response of control subject lymphocytes ([4]; synovial fluid lymphocytes from 8 early stage RA patients)
1 | QKRAAYDQYGHAAFE (Synthetic dnaJp1) | ~3 times | approximately 9 times | ~10 times | more than 5 times | ≥ 100 times | – | –
2 | B1 | – | – | – | – | – | approximately 3.6 times | approximately 2.3 times
